The numbers were not newly measured in patent US11634860B2, “Articles and methods for dispensing metal ions into laundry systems” (Applied Silver, Inc., priority 2016, dated 2023), which cites them from elsewhere.

The structures appear in SMILES notation.

The conditions of this data set: silver salt formed with the binder's counterion.
On to `[Ag+].[F-]` [AgF], for which the “Solubility Limit” value is recorded as 100 g/100 mL.
`[Cl][Ag]` [AgCl]: the “Solubility Limit” value is recorded as 1.60E−04 g/100 mL.
As to `[Ag+].[Ag+].[S-2]` [Ag2S], the “Solubility Limit” value was 6.21E−16 g/100 mL.
